Measurements reported in US8791258B2, “Pro-fluorescent probes” (The Regents of the University of California, priority 2008, dated 2014).

Experiments:
[1] = Fluorescence response to various ROS (H2O2 selectivity); conditions: 100 μM ROS, 20 mM HEPES, pH 7, 25° C.
Method: (§1) FIG. 7 is the fluorescence response of 5 μM PF1 to various ROS (10 mM O2^−, 100 μM for all other ROS). .OH and .Ot-Bu were generated by reaction of Fe^2+ with H2O2 or tert-butyl hydroperoxide (TBHP), respectively. NO was delivered using S-nitrosocysteine (SNOC). Spectra were acquired in 20 mM HEPES, pH 7, and all data were obtained after incubation with the appropriate ROS at 25° C. for 1 h. Collected emission was integrated between 460 and 700 nm (λexc=450 nm).
FIG. 8 is the fluorescence response of 5 μM PR1 to various ROS (10 mM O2^−, 100 μM for all other ROS). .OH and .O^tBu were generated by reaction of Fe^2+ with H2O2 or tert-butyl hydroperoxide (TBHP), respectively. NO was delivered using S-nitrosocysteine (SNOC). Spectra were acquired in 20 mM HEPES, pH 7, and all data were obtained after incubation with the appropriate ROS at 25° C. for 30 min. Collected emission was integrated between 570 and 800 nm (λexc=560 nm).
as §1, with “FIG. 9” for “FIG. 7”, “of 10” for “of 5”, “μM PX1” for “μM PF1”, “between 370” for “between 460”, “and 600” for “and 700”, “nm (λexc=350” for “nm (λexc=450”
(§2) Millipore water was used to prepare all aqueous solutions. All spectroscopic measurements were performed in 20 mM HEPES buffer, pH 7. Absorption spectra were recorded using a Varian Cary 50 spectrophotometer (Walnut Creek, Calif.). Fluorescence spectra were recorded using a Photon Technology International Quanta Master 4 L-format scanning spectrofluorometer (Lawrenceville, N.J.) equipped with an LPS-220B 75-W xenon lamp and power supply, A-1010B lamp housing with integrated igniter, switchable 814 photon-counting/analog photomultiplier detection unit, and MD5020 motor driver. Samples for absorption and fluorescence measurements were contained in 1-cm×1-cm quartz cuvettes (1.4- or 3.5-mL volume, Starna, Atascadero, Calif.).
FIG. 7, FIG. 8 and FIG. 9 compare the relative reactivities of boronate-based PF1, PR1, and PX1, respectively, toward various ROS.

[2] = test system: HEK cells; test: Confocal and two-photon fluorescence imaging of H2O2 in live HEK cells; conditions: for intracellular background fluorescence of probe-loaded cells before H2O2: 5-10 μM probe, 2-10 min at 25° C.; for intracellular fluorescence after addition of H2O2: probe-loaded cells, 10-100 μM H2O2
Method: (a) Fluorescence image of HEK cells incubated with 5 μM PF1 for 5 min at 25° C. (b) Fluorescence image of PF1-stained HEK cells treated with 100 μM H2O2 for 11 min at 25° C. Excitation was provided at 488 nm, and emission was collected in a window from 505 to 580 nm. Scale bar=27 μm.
(a) Fluorescence image of HEK cells incubated with 10 μM PR1 for 10 min at 25° C. (b) Fluorescence image of PR1-stained HEK cells treated with 100 μM H2O2 for 30 min at 25° C. Excitation was provided at 543 nm, and emission was collected in a window from 548 to 644 nm. Scale bar=18 μm.
(a) Fluorescence image of HEK cells incubated with 10 μM PX1 for 2-3 min at 25° C. (b) Fluorescence image of PX1-stained HEK cells treated with 100 μM H2O2 for 30 min at 25° C. Two-photon excitation was provided at 704 nm, and emission was collected in a window from 420 to 500 nm. Scale bar=18 μm.
HEK 293T cells were cultured in Dulbecco's Modified Eagle Medium (DMEM, Invitrogen, Carlsbad, Calif.) supplemented with 10% Fetal Bovine Serum (FBS, Invitrogen), glutamine (2 mM), and penicillin/streptomycin (50 μg/ml, Invitrogen). One day before imaging, cells were passed and plated on 18-mm glass coverslips coated with poly-L-lysine (50 μg/ml, Sigma, St. Louis, Mo.). Immediately before the experiments, cells were washed with PBS buffer, incubated with the probe in PBS, and imaged.
Confocal fluorescence imaging was performed with a Zeiss LSM510 META laser scanning microscope containing an Axioplan 2 MOT upright microscope and a 40× water-immersion objective lens. Excitation of PF1-loaded cells at 488 nm was carried out with an argon ion laser, and emission was Collected in a window from 505 nm to 580 nm using a META detection system. Excitation of PR1-loaded cells at 543 nm was carried out with a HeNe laser, and emission was collected in a window from 548 nm to 644 nm using a META detector. PF1 or PR1 were incubated with live cell samples for 5 to 10 min. Addition of H2O2 (10 to 100 μM) to cell samples was performed directly on the microscope stage by bath application to the media.
Two-photon fluorescence imaging of PX1 was carried out using an inverted Zeiss LSM510 Axiovert 200M microscope with a NeoFLUAR 40×/1.3 NA oil-immersion objective lens. Samples were excited by 704-nm pulses from a mode-locked Ti:Sapphire laser (Tsunami, SpectraPhysics, 120-150 fs pulse width, 80 MHz repetition rate). The emission light was filtered with a 80-nm wide bandpass filter centered at 460 nm (460BP40, Chroma) and detected with the non-descanned detector (NDD) of the LSM510.

[3] = test system: embryonic rat hippocampal neurons (E18); test: Fluorescence imaging of H2O2 in cultured hippocampal neurons; format: cell-based
Method: Hippocampal primary cultures were prepared from embryonic day 18 (E18) rat embryos according to a previously reported protocol. Briefly, hippocampi were dissociated by treatment with trypsin for 20 min at 37° C. followed by washing. The neuronal cells were plated on glass coverslips (Carolina Biological, Burlington, N.C.) coated with poly-L-lysine ([…], Sigma) and cultured in neurobasal medium supplemented with 2 mM Glutamax and 2% B-27 (Invitrogen). After 10 days in vitro, the cultures were washed with PBS, incubated with the probe in PBS, and imaged.
Finally, the successful use of the Peroxysensor probes for monitoring changes in intracellular H2O2 concentrations in mammalian cell lines using either confocal or two-photon microscopy led us to evaluate their utility in primary culture systems. […] Control neurons without PF1 and/or H2O2 treatment show no detectable fluorescence enhancements. These experiments confirm that PF1 can be used in living neurons to detect oxidative stress events.

[4] = Fluorescence response to H2O2 in 20 mM HEPES, pH 7
Method: as §2
The Peroxysensor reagents were evaluated under simulated physiological conditions (20 mM HEPES buffer, pH 7). […] FIG. 4, FIG. 5 and FIG. 6 show the fluorescence responses of PF1, PR1, and PX1, respectively, to H2O2.

[5] = Absorption and emission properties, fluorescence quantum yield; format: physicochemical; conditions: absorption maximum 350 nm; 20 mM HEPES, pH 7
Method: as §2
as §2, with “recorded on” for “recorded using”, “Creek, Calif.) and fluorescence” for “Creek, Calif.). Fluorescence”, “and emission” for “and fluorescence”, “cuvettes (1.5-mL” for “cuvettes (1.4- or 3.5-mL”, “Calif.). Fluorescence quantum yields were determined by reference to fluorescein in 0.1M NaOH (Φ=0.95).” for “Calif.).”

| membrane permeability / cell entry [2] | SMILES | higher response for H2O2 over .OH ([1]; .OH from Fe2+ with H2O2) | higher response for H2O2 over .OtBu ([1]; .OtBu from Fe2+ with TBHP) | cell viability during imaging [2] | intracellular background fluorescence of probe-loaded cells before H2O2 [2] | intracellular fluorescence after addition of H2O2 [2] | background fluorescence of probe-loaded neurons ([3]; 10 μM probe, 5 min at 25° C.) | intracellular fluorescence under simulated oxidative stress ([3]; 300 μM H2O2 for 30 min at 25° C.) | increase in integrated fluorescence intensity / integrated emission on reaction with H2O2 (dynamic range) [4] | higher response for H2O2 over NO ([1]; NO delivered using SNOC) | higher response for H2O2 over tert-butyl hydroperoxide (TBHP) [1] | extinction coefficient ε at 350 nm [5] |
| --- | --- | --- | --- | --- | --- | --- | --- | --- | --- | --- | --- | --- |
| can passively enter live cells | CC1(C)OB(c2ccc3c(c2)Oc2cc(B4OC(C)(C)C(C)(C)O4)ccc2C32OC(=O)c3ccccc32)OC1(C)C [PF1, 3′,6″-Bis(pinacolatoboron)fluoran] | > 3 fold | > 15 fold | cells are viable throughout the imaging experiments | negligible intracellular background fluorescence | prompt increases in intracellular green fluorescence | negligible background fluorescence | notable increases in intracellular fluorescence |  |  |  |  |
|  | CC1(C)OB(c2ccc3c(=O)c4ccc(B5OC(C)(C)C(C)(C)O5)cc4oc3c2)OC1(C)C [PX1, 3,6-Bis(pinacolatoboron)xanthone] |  |  |  | minimal intracellular background fluorescence | Prompt increases in intracellular blue fluorescence |  |  | 52 fold | ca. 6 fold | > 100 fold | 4700 M⁻¹ cm⁻¹ |
